The results in this text go back to patent US20090088432A1, “Thiazolinones and Oxazolinones and their Use as Ptp1b Inhibitors” (priority 2005, published 2009).

The assay deals with T1, Recombinant human Protein-tyrosine phosphatase1B (PTP1B) (Homo sapiens, UniProt P18031).
T1 construct: Recombinant human Protein-tyrosine phosphatase1B (PTP1B) (amino acid 1-322 Biomol, USA); purchased Biomol, USA
T1 sequence (P18031 1-322): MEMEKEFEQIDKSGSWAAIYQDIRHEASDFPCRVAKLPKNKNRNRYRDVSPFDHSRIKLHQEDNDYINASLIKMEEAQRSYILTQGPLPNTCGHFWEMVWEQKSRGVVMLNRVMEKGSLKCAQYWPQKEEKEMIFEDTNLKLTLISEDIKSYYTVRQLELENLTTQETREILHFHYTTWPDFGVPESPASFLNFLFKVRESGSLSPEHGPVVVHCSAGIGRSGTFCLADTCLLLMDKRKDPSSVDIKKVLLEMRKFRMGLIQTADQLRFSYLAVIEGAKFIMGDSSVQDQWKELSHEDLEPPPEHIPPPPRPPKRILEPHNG
As to the kind of experiment: PTP1B enzyme inhibition assay (pNpp substrate). It counts as biochemical. The note with it: inhibition of recombinant human PTP1B, pNpp 5 mM, 30 mins at 25° C; inhibitor concentration not given. Here is the method: Protein tyrosine phosphatase 1B (PTP1B) is an intracellular enzyme which functions by removing the phosphate groups from phosphorylated tyrosine residues of cellular proteins. PTP1B has been implicated as a negative regulator of insulin action and therefore is of therapeutic interest. The ability of the test compounds to inhibit the activity of PTP1B is determined using an enzyme inhibition assay.
The assay is performed using two independent substrates of PTP1B namely, p-nitrophenyl phosphate (pNpp) and the phosphorylated Epidermal growth factor receptor peptide (EGFR).
In the assay performed with pNpp, the action of PTP1B results in the release of p-nitrophenol, which is yellow in colour and can be measured at 410 nm. In the case of the assay using EGFR, action of PTP1B results in the release of free phosphate group. This is trapped using a reagent containing ammonium molybdate and malachite green resulting in a colored complex whose absorbance can be measured at 620 nm.
1× Assay buffer 50 mM HEPES (pH 7.4) • 1 mM EDTA • 1 mM DTT • 0.05% Igepal® CA-630
Dilute recombinant Human PTP1B 1:150 in 1× Assay buffer for 10× stock,
Prepare 10× stock of pNpp (50 mM) in 1× Assay buffer
Prepare 100× stock in 100% DMSO, dilute 1:10 with 1× Assay buffer to get 10× stock in 10% DMSO.
PTP1B inhibition assay was performed using recombinant human PTP1B. PTP1B (0.016 μg/well) was incubated in a buffer containing 50 mM HEPES, 1 mM DTT, 1 mM EDTA and 0.05% Igepal® CA-630 with or without inhibitor (10× stock, final DMSO concentration is 1%) for 30 mins at 25° C. This was followed by addition of p-Nitrophenyl phosphate (pNpp) substrate (5 mM). The final volume of the reaction mixture is 50 μL and experiment was done in 96 well half area plate. The incubation was continued for 30 mins at 25° C. The conversion of pNpp to p-Nitrophenol (pNp) was measured at 410 nm in Spectramaxplus Spectrophotometer (Molecular Devices, USA).
Regarding `N#Cc1ccccc1-c1ccc(C=C2SC(Nc3ccc(CC(=O)O)cc3)=NC2=O)cc1` [Compound 17, {4-[5-(2′-Cyano-biphenyl-4-ylmethylene)-4-oxo-4,5-dihydro-thiazol-2-ylamino]-phenyl}-acetic acid], the “Activity Score” value was “(++) (++ = 20-50% inhibition)”.
To `O=C(O)Cc1ccc(NC2=NC(=O)C(=Cc3ccc(-n4cccc4)cc3)S2)cc1` [Compound 18, {4-[4-Oxo-5-(4-pyrrol-1-yl-benzylidene)-4,5-dihydro-thiazol-2-ylamino]-phenyl}-acetic acid] belongs “(+++) (+++ = >50% inhibition)”.
Take `O=C(O)Cc1ccc(NC2=NC(=O)C(=Cc3ccc(-c4nnn[nH]4)cc3)S2)cc1` [Compound 19, (4-{4-Oxo-5-[4-(1H-tetrazol-5-yl)-benzylidene]-4,5-dihydro-thiazol-2-ylamino}-phenyl)-acetic acid]: the “Activity Score” value is given as “(+++) (+++ = >50% inhibition)”.
Turning to `CC(C)Oc1cc2ccccc2cc1C=C1SC(Nc2cccc(CC(=O)O)c2)=NC1=O` [Compound 21, {3-[5-(3-Isopropoxy-naphthalen-2-ylmethylene)-4-oxo-4,5-dihydro-thiazol-2-ylamino]-phenyl}-acetic acid], the “Activity Score” value is “(+++) (+++ = >50% inhibition)”.
To `Cc1ccc(S(=O)(=O)NC(=O)Cc2ccc(NC3=NC(=O)C(=Cc4cc5ccccc5cc4OCc4ccccc4)S3)cc2)cc1` [Compound 26, N-(2-{4-[5-(3-Benzyloxy-naphthalen-2-ylmethylene)-4-oxo-4,5-dihydro-thiazol-2-ylamino]-phenyl}-acetyl)-4-methyl-benzenesulfonamide] belongs “(+) (+ = 10-20% inhibition)”.
As for `O=C(O)Cc1ccc(NC2=NC(=O)C(=Cc3cc4ccccc4cc3O)S2)cc1` [Compound 32, {4-[5-(3-Hydroxy-naphthalen-2-ylmethylene)-4-oxo-4,5-dihydro-thiazol-2-ylamino]-phenyl}-acetic acid], the entry is “(+++) (+++ = >50% inhibition)”.
Regarding `O=C1N=C(Nc2ccc(Cc3nnn[nH]3)cc2)SC1=Cc1cc2ccccc2cc1OCc1ccccc1` [Compound 33, 5-(3-Benzyloxy-naphthalen-2-ylmethylene)-2-[4-(1H-tetrazol-5-ylmethyl)-phenylamino]-thiazol-4-one], the “Activity Score” value is on record as “(+) (+ = 10-20% inhibition)”.
As for `O=C(O)Cc1ccc(NC2=NC(=O)C(=Cc3ccc(C(=O)N4CCOCC4)cc3)S2)cc1` [Compound 36, (4-{5-[4-(Morpholine-4-carbonyl)-benzylidene]-4-oxo-4,5-dihydro-thiazol-2-ylamino}-phenyl)-acetic acid], the entry is “(+) (+ = 10-20% inhibition)”; as for `CC(C)(C)c1cc(C=C2SC(Nc3ccc(CC(=O)O)cc3)=NC2=O)cc(C(C)(C)C)c1O` [Compound 37, {4-[5-(3,5-Di-tert-butyl-4-hydroxy-benzylidene)-4-oxo-4,5-dihydro-thiazol-2-ylamino]-phenyl}-acetic acid], “(+++) (+++ = >50% inhibition)”; as for `O=C(O)CCc1ccc(NC2=NC(=O)C(=Cc3cn(CC(=O)O)c4ccccc34)S2)cc1` [Compound 43, 3-{4-[5-(1-Carboxymethyl-1H-indo-3-ylmethylene)-4-oxo-4,5-dihydro-thiazol-2-ylamino]-phenyl}-propionic acid], “(+++) (+++ = >50% inhibition)”.
To `CNS(=O)(=O)Cc1ccc(NC2=NC(=O)C(=Cc3cn(CC(=O)O)c4ccccc34)S2)cc1` [Compound 44, {3-[2-(4-Methylsulfamoylmethyl-phenylamino)-4-oxo-4H-thiazol-5-ylidenemethyl]-indol-1-yl}-acetic acid] belongs “(+) (+ = 10-20% inhibition)”; to `O=C(O)Cc1ccc(NC2=NC(=O)C(=Cc3ccc(-n4cnnn4)cc3)S2)cc1` [Compound 45, {4-[4-Oxo-5-(4-tetrazol-1-yl-benzylidene)-4,5-dihydro-thiazol-2-ylamino]-phenyl}-acetic acid], “(+++) (+++ = >50% inhibition)”; to `O=C(O)Cn1ccc2cc(NC3=NC(=O)C(=Cc4cc5ccccc5cc4OCc4ccccc4)S3)ccc21` [Compound 47, {5-[5-(3-Benzyloxy-naphthalen-2-ylmethylene)-4-oxo-4,5-dihydro-thiazol-2-ylamino]-indol-1-yl}-acetic acid], “(+++) (+++ = >50% inhibition)”.
With `CCC(C(=O)O)c1ccc(NC2=NC(=O)C(=Cc3cc4ccccc4cc3OCc3ccccc3)S2)cc1` (stereo not shown) [Compound 48, 2-{4-[5-(3-Benzyloxy-naphthalen-2-ylmethylene)-4-oxo-4,5-dihydro-thiazol-2-ylamino]-phenyl}-butyric acid], the “Activity Score” value is “(+++) (+++ = >50% inhibition)”.
To `O=C(O)CCc1ccc(NC2=NC(=O)C(=Cc3cc4ccccc4cc3OCc3ccccc3)S2)cc1` [Compound 49, 3-{4-[5-(3-Benzyloxy-naphthalen-2-ylmethylene)-4-oxo-4,5-dihydro-thiazol-2-ylamino]-phenyl}-propionic acid] belongs “(++) (++ = 20-50% inhibition)”.
To `O=C(O)Cc1ccc(NC2=NC(=O)C(=Cc3cccc(N4C(=O)c5ccccc5C4=O)c3)S2)cc1` [Compound 50, (4-{5-[3-(1,3-Dioxo-1,3-dihydro-isoindol-2-yl)-benzylidene]-4-oxo-4,5-dihydro-thiazol-2-ylamino}-phenyl)-acetic acid] belongs “(+++) (+++ = >50% inhibition)”; to `O=C(O)Cc1ccc(NC2=NC(=O)C(=Cc3cccc(-n4cccc4)c3)S2)cc1` [Compound 51, {4-[4-Oxo-5-(3-pyrrol-1-yl-benzylidene)-4,5-dihydro-thiazol-2-ylamino]-phenyl}-acetic acid], “(+++) (+++ = >50% inhibition)”; to `CC(C(=O)O)c1ccc(NC2=NC(=O)C(=Cc3ccc4ccccc4c3)S2)cc1` (stereo not shown) [Compound 53, 2-[4-(5-Naphthalen-2-yl-ethylene-4-oxo-4,5-dihydro-thiazol-2-ylamino)-phenyl]-propionic acid], “(++) (++ = 20-50% inhibition)”.
`CC(C(=O)O)c1ccc(NC2=NC(=O)C(=Cc3ccc(-c4ccccc4)cc3)S2)cc1` (stereo not shown) [Compound 54, 2-[4-(5-Biphenyl-4-ylmethylene-4-oxo-4,5-dihydro-thiazol-2-ylamino)-phenyl]-propionic acid]: the “Activity Score” value is reported as “(+++) (+++ = >50% inhibition)”.
As for `O=C(O)CC(C(=O)O)c1ccc(NC2=NC(=O)C(=Cc3ccc(-c4ccccc4)cc3)S2)cc1` (stereo not shown) [Compound 55, 2-[4-(5-Biphenyl-4-ylmethylene-4-oxo-4,5-dihydro-thiazol-2-ylamino)-phenyl]-succinic acid], the entry is “(++) (++ = 20-50% inhibition)”.
Turning to `COc1cc(C=C2SC(Nc3ccc(CC(=O)O)cc3)=NC2=O)cc(OC)c1O` [Compound 56, {4-[c-(4-hydroxy-3,5-dimethoxy-benzylidene)-4-oxo-4,5-dihydro-thiazol-2-ylamino]-phenyl}-acetic acid], the “Activity Score” value was “(+) (+ = 10-20% inhibition)”.
To `COc1cc(C=C2SC(Nc3ccc(CC(=O)O)cc3)=NC2=O)cc(OC)c1OC` [Compound 59, {4-[4-Oxo-5-(3,4,5-trimethoxy-benzylidene)-4,5-dihydro-thiazol-2-ylamino]-phenyl}-acetic acid] belongs “(+++) (+++ = >50% inhibition)”; to `O=C(O)Cc1ccc(NC2=NC(=O)C(=Cc3cccn3-c3ccc(Br)cc3)S2)cc1` [Compound 60, (4-{5-[1-(4-Bromo-phenyl)-1H-pyrrol-2-ylmethylene]-4-oxo-4,5-dihydro-thiazol-2-ylamino}-phenyl)-acetic acid], “(++) (++ = 20-50% inhibition)”.
To `CC(=C1SC(Nc2ccc(CC(=O)O)cc2)=NC1=O)c1cccc(-n2cccc2)c1` [Compound 61, (4-{4-Oxo-5-[1-(3-pyrrol-1-yl-phenyl)-ethylidene]-4,5-dihydro-thiazol-2-ylamino}-phenyl)-acetic acid] belongs “(+) (+ = 10-20% inhibition)”; to `O=C(O)Cc1ccc(NC2=NC(=O)C(=Cc3cccn3-c3ccccc3)S2)cc1` [Compound 62, {4-[4-Oxo-5-(1-phenyl-1H-pyrrol-2-ylmethylene)-4,5-dihydro-thiazol-2-ylamino]-phenyl}-acetic acid], “(+++) (+++ = >50% inhibition)”.
